Legend:
HCC44 = test: Treatment of HCC44 with cGAS inhibitor, STING signaling in response to cGAMP stimulation; assay type: cell-based, human; details: HCC44 cells
Description: Suppression of CIN or cGAS activity restores immunogenic potential of LKB1-deficient NSCLC. In experiments, relief of tonic STING activation via cGAMP could be removed by genetically deleting cGAS. Treatment of HCC44 with a commercially available human-selective cGAS inhibitor (G150) restored STING protein levels and enhanced pTBK1 and pIRF3 in response to cGAMP stimulation, thus, phenocopying genetic cGAS deletion experiments.

[1] = tested on: KL, 4T1, and EO771.1mb tumors; test: RU.521 and MSA-2 combination treatment of KL, 4T1 and EO771.1mb tumors in animals; assay type: in vivo; details: KL (subcutaneous), 4T1 and EO771.1mb (orthotopic); agent alone
Protocol: (§1) Given mounting evidence on reprograming of macrophages by STING agonists, macrophage polarization assays were carried out. […] Finally, KL, 4T1, and EO771.1mb were inoculated subcutaneously (KL) or orthotopically (4T1 and EO771.1mb) to evaluate the efficacy of RU.521 and MSA-2 combination treatment. Animals were pre-treated with RU.521 to ensure sufficient drug exposure by the time the first MSA-2 dose was administrated and continued RU.521 throughout the treatment course. Animals were treated with MSA-2 when tumors reached ~100 mm3.

[2] = tested on: KL, 4T1, CT26, B16F10 and E0771.1mb tumors; test: MSA-2 treatment of transplanted wild type or Cgas KO tumors; assay type: in vivo
Description: To test if loss of tumor cell cGAS activity would sensitize otherwise resistant chromosomally unstable tumors to STING agonists, wild type or Cgas KO cells […] biweekly with MSA-2.

macrophages = test: Macrophage polarization assays with conditioned media from MSA-2-treated cancer cells; assay type: cell-based
Protocol: as §1

[3] = Cgas KO tumors, KL, 4T1, CT26, B16F10, MSA-2 biweekly

## Nc1ccc(-c2cc(Cl)c(Cl)c3[nH]c4c(c23)CN(C(=O)CO)CC4)cn1 [G150]
HCC44
  STING protein levels: restored
HCC44; cGAMP stimulation
  pIRF3 in response to cGAMP stimulation: enhanced
  pTBK1 in response to cGAMP stimulation: enhanced

## COc1cc2cc(C(=O)CCC(=O)O)sc2cc1OC [MSA-2]
[1]
  tumor growth, single agent: did not significantly hinder tumor growth
[2]; [3]
  survival of treated animals: extending the survival
  tumor growth: significantly slowed the growth
[2]; E0771.1mb Cgas KO tumors
  survival of animals: prolonged survival
[2]; E0771.1mb tumors, both cGAS proficient and deficient
  tumor growth: grew slightly slower
[2]; wildtype tumors
  tumor growth and survival benefit: comparatively minimal effect
macrophages; conditioned media from KL, 4T1, CT26 and B16F10 cells treated with MSA-2, with inhibition of cGAS in cancer cells
  Arginase 1 (M2-like marker) in macrophages: reductions of Arginase 1
macrophages; conditioned media from MSA-2-treated Cgas KO cells versus wildtype MSA-2-treated cancer cells
  iNOS (M1-like marker) in macrophages: robust increase in iNOS

— US20260285860A1, “INHIBITORS OF cGAS AND USES THEREOF” (The Trustees of Columbia University in the City of New York, priority 2023, published 2026)
